According to patent publication US20100184770A1, “COMPOUNDS” (Glaxo Group Limited, priority 2006, published 2010):
Where a name gives a salt, the structure may show the parent alone.

Tested on: histamine-induced congestion
Test: Intranasal challenge method: whole body plethysmography
Assay type: in vivo, guinea pigs
Conditions: dosed intranasally at 1 mg/ml either 1 hr or 24 hr before histamine challenge
Experimental: Female Dunkin-Hartley guinea pigs 150-250 g are sensitised twice daily for 5 days (week 1) with ovalbumin (OVA) and aluminium hydroxide (Al(OH)3 or Alum) in physiological saline, 25 μl/nostril. Solution is made up at 20 μg/ml OVA, 180 mg/ml Alum. During weeks 2 and 3 animals receive 25 μl/nostril of OVA (5 mg/ml) once daily. During Week 4 guinea pigs will be entered into study but are continually sensitized as per weeks 2 and 3 until the day before dosing with compound or vehicle.
Pretreatment with test compound is performed at various times prior to histamine challenge. Efficacy dose-response curves are determined 1 hr and/or 3 hr after dosing whereas duration of action may be studied up to 7 days post dose. Test compounds are formulated as solutions in 0.9% sterile saline or suspensions in 0.9% sterile saline/tween80.
Guinea pigs were anaesthetised with isoflurane (5%, 2-31/min O2), placed in a supine position, and 25 μl of test compound or vehicle dosed into each nostril using a Gilson pipette. After dosing, animals remain supine for at least 30 seconds during recovery from anaesthesia.
At 30 minutes before the time of histamine challenge, guinea pigs are dosed with atropine sulphate (Sigma A0257, dissolved in saline), 1 mg/kg i.p. Animals are then placed into whole body plethysmograph systems (Buxco® Electronics) where the parameter PenH area under curve (AUC) is recorded as outlined in […], E., SCHWARZE, J., TAKEDA, K., OSHIBA, A., LARSEN, L., IRVIN, C. G. & GELFAND, E. W. (1997) Noninvasive measurement of airway responsiveness in allergic mice using barometric plethysmography. Am. J. Respir. Crit. Care Med. 156, 766-775.
Hamelmann et al. A 10 minute baseline AUC is recorded and if this value is over 1000, the animals are excluded.
After the stipulated pre-dose time has been reached, guinea pigs are re-anaesthetised with isoflurane and dosed with either 10 mM or 15 mM histamine or phosphate-buffered saline (PBS), (25 μl per nostril). On recovery from anaesthesia animals are returned to the individual plethysmograph chambers and 4×10 min consecutive PenH AUC recordings are made. These recordings are summed to give a cumulative AUC over 40 mins post histamine challenge for each animal. Data are analysed using ANOVA with post-hoc Fishers LSD test (general linear models, Statistica®) and finally Hochberg adjustment. Inhibition of histamine-induced congestion is determined by statistically significant differences between the mean responses of compound pre-treated groups compared to the vehicle pre-treated, histamine-challenged group.

Question: For `COCCCC(=O)NCCN1CCC[C@@H]1Cn1nc(Cc2ccc(Cl)cc2)c2ccccc2c1=O.Cl` [Example 34a, N-[2-((2R)-2-{[4-[(4-Chlorophenyl)methyl]-1-oxo-2(1H)-phthalazinyl]methyl}-1-pyrrolidinyl)ethyl]-4-(methyloxy)butanamide, hydrochloride salt], which “inhibition of the response to histamine challenge (PenH AUC)” value is on record?
Answer: The value was “significantly (p<0.05) inhibited the response at both timepoints”.

Target: T1, human H1 receptor (Homo sapiens, UniProt P35367)
T1 construct: expressed in transfected cells
Test: Histamine H1 functional antagonist assay: determination of antagonist duration (washout, FLIPR)
Assay type: cell-based
Conditions: at one or more time points after washout
Experimental: 1. Generation of Histamine H1 Cell Line The human H1 receptor is cloned using known procedures described in the literature [Biochem. Biophys. Res. Commun., 201(2):894 (1994)]. Chinese hamster ovary (CHO) cells stably expressing the human H1 receptor are generated according to known procedures described in the literature [Br. J. Pharmacol., 117(6):1071 (1996)].
To determine the antagonist duration, cells are cultured overnight in non-coated black-walled clear bottom 96-well tissue culture plates, are washed with PBS and are incubated with a concentration of antagonist chosen to give an approximate DR in the range 30-300. Following the 30 min antagonist incubation period, the cells are washed two or three times with 200 μl of PBS and then 100 μl Tyrodes buffer is added to each well to initiate antagonist dissociation. Following incubation for predetermined times, typically 30-270 min at 37° C., the cells are then washed again with 200 μl PBS and are incubated with 100 Tyrodes buffer containing Brilliant Black, probenecid and Fluo-4 for 45 min at 37° C., as described above. After this period, the cells are challenged with histamine in the FLIPR™ as described above. The dose ratio at each time point is used to determine the fractional H1 receptor occupancy by the following equation: fractional receptor occupancy=(DR-1)/DR. The decrease in receptor occupancy over time approximates to a straight line and is analysed by linear regression. The slope of this straight line fit is used as an index of the dissociation rate of the antagonist. The dose ratios for antagonist treated cells and for antagonist treated and washed cells at each time point are used to calculate a relative dose ratio (rel DR) which is also used as an index of antagonist duration. Antagonists with long duration of action produce rel DR values close to 1, and antagonists with short duration of action produce rel DR values that approaches the dose ratio value obtained for antagonist treatment alone.

T1 sequence (P35367 whole entry): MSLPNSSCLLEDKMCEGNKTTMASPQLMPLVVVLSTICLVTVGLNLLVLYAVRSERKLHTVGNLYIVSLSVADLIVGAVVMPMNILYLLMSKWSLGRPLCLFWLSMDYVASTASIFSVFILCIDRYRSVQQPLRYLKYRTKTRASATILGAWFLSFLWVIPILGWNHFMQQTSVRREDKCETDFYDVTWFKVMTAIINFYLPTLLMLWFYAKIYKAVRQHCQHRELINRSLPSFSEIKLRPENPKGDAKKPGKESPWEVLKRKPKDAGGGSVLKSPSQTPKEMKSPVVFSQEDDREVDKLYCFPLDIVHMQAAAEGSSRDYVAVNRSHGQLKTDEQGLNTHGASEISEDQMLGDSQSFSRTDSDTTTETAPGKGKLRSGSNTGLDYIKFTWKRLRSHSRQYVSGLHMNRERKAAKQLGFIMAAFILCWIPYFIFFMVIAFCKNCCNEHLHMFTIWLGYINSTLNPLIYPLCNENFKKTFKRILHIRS

Question: Which “duration of action compared with azelastine in the histamine H1 functional antagonist assay” value does the source give for `COCC(=O)NCCN1CCC[C@@H]1Cn1nc(Cc2ccc(Cl)cc2)c2ccccc2c1=O.O=C(O)C(F)(F)F` [Example 39, N-[2-((2R)-2-{[4-[(4-chlorophenyl)methyl]-1-oxo-2(1H)-phthalazinyl]methyl}-1-pyrrolidinyl)ethyl]-2-(methyloxy)acetamide, trifluoroacetate] here?
Answer: Its value is “longer duration of action than azelastine”.

Question: `COCCC(=O)NCCCN1CCC[C@@H]1Cn1nc(Cc2ccc(Cl)cc2)c2ccccc2c1=O` [Example 42, N-[3-((2R)-2-{[4-[(4-Chlorophenyl)methyl]-1-oxo-2(1H)-phthalazinyl]methyl}-1-pyrrolidinyl)propyl]-3-(methyloxy)propanamide, trifluoroacetate] was tested. Which “duration of action compared with azelastine in the histamine H1 functional antagonist assay” value did it give?
Answer: Its value is “longer duration of action than azelastine”.

Question: Which “duration of action compared with azelastine in the histamine H1 functional antagonist assay” value does the source give for `CCOCCNC(=O)CCN1CCCC1Cn1nc(Cc2ccc(Cl)cc2)c2ccccc2c1=O.O=C(O)C(F)(F)F` [Example 22, 3-((2R)-2-{[4-[(4-chlorophenyl)methyl]-1-oxo-2(1H)-phthalazinyl]methyl}-1-pyrrolidinyl)-N-[2-(ethyloxy)ethyl] propanamide, trifluoroacetate] here?
Answer: The value was “longer duration of action than azelastine”.

Question: Which “duration of action compared with azelastine in the histamine H1 functional antagonist assay” value does the source give for `CC(C)c1noc(CCN2CCC[C@@H]2Cn2nc(Cc3ccc(Cl)cc3)c3ccccc3c2=O)n1.Cl` [Example 61, 4-[(4-Chlorophenyl)methyl]-2-[((2R)-1-{2-[3-(1-methylethyl)-1,2,4-oxadiazol-5-yl]ethyl}-2-pyrrolidinyl)methyl]-1(2H)-phthalazinone, hydrochloride] here?
Answer: Its value is “longer duration of action than azelastine”.

Question: Which “duration of action compared with azelastine in the histamine H1 functional antagonist assay” value does the source give for `CC(C)(C)NC(=O)CN1CCCC1Cn1nc(Cc2ccc(Cl)cc2)c2ccccc2c1=O.O=C(O)C(F)(F)F` [Example 30, 2-((2R)-2-{[4-[(4-chlorophenyl)methyl]-1-oxo-2(1H)-phthalazinyl]methyl}-1-pyrrolidinyl)-N-(1,1-dimethylethyl) acetamide, trifluoroacetate] here?
Answer: The value was “longer duration of action than azelastine”.

Question: How did the “duration of action compared with azelastine in the histamine H1 functional antagonist assay” value turn out when `O=C(CCN1CCC[C@@H]1Cn1nc(Cc2ccc(Cl)cc2)c2ccccc2c1=O)NCC(F)F.O=CO` [Example 6, formic acid-3-((2R)-2-{[4-[(4-chlorophenyl)methyl]-1-oxo-2(1H)-phthalazinyl]methyl}-1-pyrrolidinyl)-N-(2,2-difluoroethyl)propanamide (1:1)] was run?
Answer: Its value is “longer duration of action than azelastine”.

Question: For `CC(C)(C)C(=O)NCCN1CCC[C@@H]1Cn1nc(Cc2ccc(Cl)cc2)c2ccccc2c1=O.O=C(O)C(F)(F)F` [Example 38, N-[2-((2R)-2-{[4-[(4-chlorophenyl)methyl]-1-oxo-2(1H)-phthalazinyl]methyl}-1-pyrrolidinyl)ethyl]-2,2-dimethylpropanamide, trifluoroacetate], which “duration of action compared with azelastine in the histamine H1 functional antagonist assay” value is on record?
Answer: Its value is “longer duration of action than azelastine”.

Question: Which “duration of action compared with azelastine in the histamine H1 functional antagonist assay” value does the source give for `COCCCC(=O)NCCN1CCC[C@@H]1Cn1nc(Cc2ccc(Cl)cc2)c2cnccc2c1=O` [Example 70, N-[2-((2R)-2-{[4-[(4-chlorophenyl)methyl]-1-oxopyrido[3,4-d]pyridazin-2(1H)-yl]methyl}-1-pyrrolidinyl)ethyl]-4-(methyloxy)butanamide, trifluoroacetate] here?
Answer: Its value is “longer duration of action than azelastine”.

Question: `COCCN(C)C(=O)CCN1CCC[C@@H]1Cn1nc(Cc2ccc(Cl)cc2)c2ccccc2c1=O.O=C(O)C(F)(F)F` [Example 14, 3-((2R)-2-{[4-[(4-chlorophenyl)methyl]-1-oxo-2(1H)-phthalazinyl]methyl}-1-pyrrolidinyl)-N-methyl-N-[2-(methyloxy)ethyl] propanamide, trifluoroacetate] was tested. Which “duration of action compared with azelastine in the histamine H1 functional antagonist assay” value did it give?
Answer: The value was “longer duration of action than azelastine”.

Question: Which “duration of action compared with azelastine in the histamine H1 functional antagonist assay” value does the source give for `CCCNC(=O)CCCN1CCC[C@@H]1Cn1nc(Cc2ccc(Cl)cc2)c2ccccc2c1=O.Cl` [Example 26, 4-((2R)-2-{[4-[(4-Chlorophenyl)methyl]-1-oxo-2(1H)-phthalazinyl]methyl}-1-pyrrolidinyl)-N-propylbutanamide, hydrochloride] here?
Answer: Its value is “longer duration of action than azelastine”.

Question: For `CC(C)(C)C(=O)NCCCN1CCC[C@@H]1Cn1nc(Cc2ccc(Cl)cc2)c2cnccc2c1=O.O=C(O)C(F)(F)F` [Example 80, N-[3-((2R)-2-{[4-[(4-chlorophenyl)methyl]-1-oxopyrido[3,4-d]pyridazin-2(1H)-yl]methyl}-1-pyrrolidinyl)propyl]-2,2-dimethylpropanamide, trifluoroacetate], which “duration of action compared with azelastine in the histamine H1 functional antagonist assay” value is on record?
Answer: The value was “longer duration of action than azelastine”.

Question: With `O=C(CCN1CCC[C@@H]1Cn1nc(Cc2ccc(Cl)cc2)c2ccccc2c1=O)N1CCCCC1.O=C(O)C(F)(F)F` [Example 12, 4-[(4-chlorophenyl)methyl]-2-({(2R)-1-[3-oxo-3-(1-piperidinyl)propyl]-2-pyrrolidinyl}methyl)-1(2H)-phthalazinone, trifluoroacetate] as the molecule, how does the “duration of action compared with azelastine in the histamine H1 functional antagonist assay” value read?
Answer: Its value is “longer duration of action than azelastine”.

Question: With `CC(C)C(=O)NCCN1CCC[C@@H]1Cn1nc(Cc2ccc(Cl)cc2)c2ccccc2c1=O.O=C(O)C(F)(F)F` [Example 41, N-[2-((2R)-2-{[4-[(4-chlorophenyl)methyl]-1-oxo-2(1H)-phthalazinyl]methyl}-1-pyrrolidinyl)ethyl]-2-methylpropanamide, trifluoroacetate] as the molecule, how does the “duration of action compared with azelastine in the histamine H1 functional antagonist assay” value read?
Answer: Its value is “longer duration of action than azelastine”.

Question: How did the “duration of action compared with azelastine in the histamine H1 functional antagonist assay” value turn out when `COCCNC(=O)CCCN1CCC[C@@H]1Cn1nc(Cc2ccc(Cl)cc2)c2ccccc2c1=O.O=CO` [Example 24, Formic acid-4-((2R)-2-{[4-[(4-chlorophenyl)methyl]-1-oxo-2(1H)-phthalazinyl]methyl}-1-pyrrolidinyl)-N-[2-(methyloxy)ethyl] butanamide (1:1)] was run?
Answer: Its value is “longer duration of action than azelastine”.

Question: With `O=C(CCN1CCC[C@@H]1Cn1nc(Cc2ccc(Cl)cc2)c2ccccc2c1=O)NCCF.O=C(O)C(F)(F)F` [Example 1, 3-((2R)-2-{[4-[(4-Chlorophenyl)methyl]-1-oxo-2(1H)-phthalazinyl]methyl}-1-pyrrolidinyl)-N-(2-fluoroethyl)propanamide, trifluoroacetate] as the molecule, how does the “duration of action compared with azelastine in the histamine H1 functional antagonist assay” value read?
Answer: Its value is “longer duration of action than azelastine”.

Question: Which “duration of action compared with azelastine in the histamine H1 functional antagonist assay” value does the source give for `O=C(CCN1CCC[C@@H]1Cn1nc(Cc2ccc(Cl)cc2)c2ccccc2c1=O)NCC(F)(F)F` [Example 4, 3-((2R)-2-{[4-[(4-chlorophenyl)methyl]-1-oxo-2(1H)-phthalazinyl]methyl}-1-pyrrolidinyl)-N-(2,2,2-trifluoroethyl)propanamide] here?
Answer: Its value is “longer duration of action than azelastine”.
